# According to patent US6368788B1 (priority 1987, dated 2002):
# Marks after values point to notes of the source that are not given here.
# Legend:
# [1] = system: peripheral blood lymphocytes; assay: Chernobyl Protocol F: L-Glu-L-Trp at 3 years post-radiation exposure; format: in vivo, human
# Description: An increased incidence of cancer is one sequelae known to occur in subjects exposed to radiation, presumably because of decreased immune surveillance and elimination of tumor cells. […] An attempt to normalize immune parameters was attempted in 70 of the latter patients exposed 3 years previously to 0.2-0.5 Gy of radiation at Chernobyl. […] The subjects were treated with L-Glu-L-Trp in an attempt to alleviate the immune defects. The treatment course consisted of daily doses of 100 μg L-Glu-L-Trp administered im for 3-5 days. Sixty three subjects, similarly exposed to radiation in Chernobyl were used as untreated controls.
# [2] = Patients after radiation and chemotherapy, L-Glu-L-Trp 100 μg daily 10 days; conditions: human, in vivo
# Description: A total of 246 patients were eventually entered into studies after receiving radiation and chemotherapy. L-Glu-L-Trp was administered to the patients in single 100 μg daily dose for each of 10 days during the period of chemotherapy. A control group constituted 158 similar patients (following radiation and chemotherapy), and these patients were treated in a conventional manner (i.e., chemotherapy and support therapy). […] Immune parameters were periodically monitored over the next 4-6 months in the patients and decreased levels of lymphocytes or their subpopulations were used as clinical triggers for additional therapeutic intervention with L-Glu-L-Trp.
# [3] = system: acute respiratory infections; assay: Prophylaxis of respiratory infection in athletes in training, intranasal L-Glu-L-Trp; format: in vivo, human; conditions: for B-Lymphocytes / B-Lymphocytes % Normal Value / B-Lymphocytes (%) / Blasts w/Con-A / Blasts w/PHA / C3 / Eosinophils / Eosinophils (%) / Eosinophils, % Normal Value / Granulocyte Cationic Proteins / IgA / IgA % Normal Value / IgG / IgG % Normal Value / IgM / IgM % Normal Value / Leukocytes / Leukocytes % Normal Value / Leukocytes, Ratio Post-Treat/Pre-Treat Value / Lymphocytes / Lymphocytes % Normal Value / Lymphocytes, % / Monocytes / Monocytes, % / Monocytes, % Normal Value / Neutrophils / Neutrophils, % / Neutrophils, % Normal Value / Phagocytosis (yeast) / Salivary IgM / Salivary Lysozyme / Salivary Secretory IgA / Serum Lysozyme / Serum β-Lysin / T-Lymphocytes / T-Lymphocytes % Normal Value / T-Lymphocytes (%) / T-helper (CD4+) / T-helper (CD4+), % / T-helper (CD4+), % Normal Value / T-suppressor (CD8+) / T-suppressor (CD8+), % / T-suppressor (CD8+), % Normal Value / Total Salivary IgA: After L-Glu-L-Trp
# influenza = assay: Volunteers experimentally infected with influenza (Protocol I); conditions: human, in vivo
# Source text: Thirty-four similarly infected volunteers (34) served as untreated controls. […] The hematological and immunological indices examined immediately following the period of treatment were restored to within the normal range.
# Adult thymectomy = assay: Adult thymectomy; design: species or system human; conditions: in vivo
# Description: A total of 12 thymectomized patients were treated with L-Glu-L-Trp. Prior to therapy, these individuals had experienced frequent serious infections including upper respiratory infections. L-Glu-L-Trp was administered in a single dose of 100 μg daily for 10 days and repeated every 4-6 months.
# [4] = Survival in LPS-induced endotoxic shock; format: in vivo, CBA mice; conditions: 100 μg/kg prophylactic
# Description: The mortality results were evaluated using the Litchfield-Wilcoxon's probit analysis method and a computer program written to conduct probit analyses.
# Herpes vulgaris = conditions: in combination with interferon; 7-10 outbreaks per year before
# Herpes Zoster = conditions: on the average
substance,measurement,setting,value
L-Glu-L-Trp,"B-Ig+, %",[1]; After L-Glu-L-Trp,11.0 ± 0.3%
same,"B-Ig+, abs",[1]; After L-Glu-L-Trp,0.23 ± 0.04 10^9/L
same,"B-IgA+, %",[1]; After L-Glu-L-Trp,1.9 ± 0.3%
same,"B-IgA+, abs",[1]; After L-Glu-L-Trp,0.04 ± 0.002 10^9/L
same,"B-IgG+, %",[1]; After L-Glu-L-Trp,4.8 ± 0.5%
same,"B-IgG+, abs",[1]; After L-Glu-L-Trp,0.09 ± 0.007 10^9/L
same,"B-IgM+, %",[1]; After L-Glu-L-Trp,4.1 ± 0.6 %
same,"B-IgM+, abs",[1]; After L-Glu-L-Trp,0.12 ± 0.003** 10^9/L
same,"CD2-DR+, %",[1]; After L-Glu-L-Trp,32 ± 3 %
same,"CD2-DR+, abs",[1]; After L-Glu-L-Trp,0.66 ± 0.10** 10^9/L
same,"CD3, %",[1]; After L-Glu-L-Trp,59.2 ± 2.1 %
same,"CD3, abs",[1]; After L-Glu-L-Trp,1.21 ± 0.15 10^9/L
same,"CD4, %",[1]; After L-Glu-L-Trp,36.2 ± 1.7%
same,"CD4, abs",[1]; After L-Glu-L-Trp,0.74 ± 0.08 10^9/L
same,"CD8, %",[1]; After L-Glu-L-Trp,23.2 ± 2.1 %
same,"CD8, abs",[1]; After L-Glu-L-Trp,0.48 ± 0.07** 10^9/L
same,IgA,[1]; After L-Glu-L-Trp,1.2 ± 0.4 g/L
same,IgG,[1]; After L-Glu-L-Trp,10.9 ± 1.3 g/L
same,IgM,[1]; After L-Glu-L-Trp,1.06 ± 0.06 g/L
same,"LMI, %",[1]; After L-Glu-L-Trp,75 ± 6 %
same,"Leukocytes, abs",[1]; After L-Glu-L-Trp,5.6 ± 0.4 10^9/L
same,"Lymphocytes, abs",[1]; After L-Glu-L-Trp,2.1 ± 0.3 10^9/L
same,T4/T8,[1]; After L-Glu-L-Trp,1.58 ± 0.04
same,Cases with restoration of CD2+ counts,[1]; in vivo,85%
same,Clinical outcome,[1]; in vivo,disappearance of symptoms associated with the asthenic syndrome
same,Clinical outcome,[2],decreased incidence and severity of post-operative complications
same,B-Lymphocytes,[3]; Athletes,0.29 ± 0.02 ×10^9/L
same,B-Lymphocytes % Normal Value,[3]; Athletes,(74%)
same,B-Lymphocytes (%),[3]; Athletes,13.6 ± 0.9 %
same,Blasts w/Con-A,[3]; Athletes,53.4 ± 3.9%
same,Blasts w/PHA,[3]; Athletes,42.5 ± 2.5 %
same,C3,[3]; Athletes,0.8 ± 0.02 g/L
same,Eosinophils,[3]; Athletes,0.23 ± 0.03 ×10^9/L
same,Eosinophils (%),[3]; Athletes,4.2 ± 0.6%
same,"Eosinophils, % Normal Value",[3]; Athletes,(96%)
same,Granulocyte Cationic Proteins,[3]; Athletes,1.1 ± 0.04
same,IgA,[3]; Athletes,1.8 ± 0.1 mg/mL
same,IgA % Normal Value,[3]; Athletes,(138%)
same,IgG,[3]; Athletes,10.2 ± 0.6 mg/mL
same,IgG % Normal Value,[3]; Athletes,(84%)
same,IgM,[3]; Athletes,1.1 ± 0.07 mg/mL
same,IgM % Normal Value,[3]; Athletes,(100%)
same,Leukocytes,[3]; Athletes,6.1 ± 0.2 ×10^9/L
same,Leukocytes % Normal Value,[3]; Athletes,(109%)
same,"Leukocytes, Ratio Post-Treat/Pre-Treat Value",[3]; Athletes,(1.09)
same,Lymphocytes,[3]; Athletes,2.22 ± 0.1 ×10^9/L
same,Lymphocytes % Normal Value,[3]; Athletes,(104%)
same,"Lymphocytes, %",[3]; Athletes,34.9 ± 4.7%
same,Monocytes,[3]; Athletes,0.59 ± 0.05 ×10^9/L
same,"Monocytes, %",[3]; Athletes,9.4 ± 0.5%
same,"Monocytes, % Normal Value",[3]; Athletes,(137%)
same,Neutrophils,[3]; Athletes,3.01 ± 0.2 ×10^9/L
same,"Neutrophils, %",[3]; Athletes,49.0 ± 1.5%
same,"Neutrophils, % Normal Value",[3]; Athletes,(115%)
same,Phagocytosis (yeast),[3]; Athletes,73.3 ± 1.5
same,Salivary IgM,[3]; Athletes,0.65 g/L
same,Salivary Lysozyme,[3]; Athletes,68.7 ± 1.3 %
same,Salivary Secretory IgA,[3]; Athletes,0.056 ± 0.004 g/L
same,Serum Lysozyme,[3]; Athletes,60.2 ± 1.6%
same,Serum β-Lysin,[3]; Athletes,57.6 ± 3.2 %
same,T-Lymphocytes,[3]; Athletes,1.55 ± 0.08 ×10^9/L
same,T-Lymphocytes % Normal Value,[3]; Athletes,(108%)
same,T-Lymphocytes (%),[3]; Athletes,70.8 ± 1.4 %
same,T-helper (CD4+),[3]; Athletes,1.25 ± 0.07 ×10^9/L
same,"T-helper (CD4+), %",[3]; Athletes,56.1 ± 1.3 %
same,"T-helper (CD4+), % Normal Value",[3]; Athletes,(112%)
same,T-suppressor (CD8+),[3]; Athletes,0.12 ± 0.02 ×10^9/L
same,"T-suppressor (CD8+), %",[3]; Athletes,5.9 ± 0.7%
same,"T-suppressor (CD8+), % Normal Value",[3]; Athletes,(86%)
same,Total Salivary IgA,[3]; Athletes,0.55 ± 0.05 g/L
same,B-Lymphocytes,[3]; Controls,0.41 ± 0.05 ×10^9/L
same,B-Lymphocytes % Normal Value,[3]; Controls,(85%)
same,B-Lymphocytes (%),[3]; Controls,20.1 ± 1.5%
same,Blasts w/Con-A,[3]; Controls,66.8 ± 4.0 %
same,Blasts w/PHA,[3]; Controls,34.1 ± 3.1%
same,C3,[3]; Controls,0.7 ± 0.03 g/L
same,Eosinophils,[3]; Controls,0.22 ± 0.07 ×10^9/L
same,Eosinophils (%),[3]; Controls,4.0 ± 0.8%
same,"Eosinophils, % Normal Value",[3]; Controls,(85%)
same,Granulocyte Cationic Proteins,[3]; Controls,1.22 ± 0.1
same,IgA,[3]; Controls,1.8 ± 0.2 mg/mL
same,IgA % Normal Value,[3]; Controls,(100%)
same,IgG,[3]; Controls,12.6 ± 0.7 mg/mL
same,IgG % Normal Value,[3]; Controls,(104%)
same,IgM,[3]; Controls,1.0 ± 0.02 mg/mL
same,IgM % Normal Value,[3]; Controls,(77%)
same,Leukocytes,[3]; Controls,5.6 ± 0.4 ×10^9/L
same,Leukocytes % Normal Value,[3]; Controls,(97%)
same,"Leukocytes, Ratio Post-Treat/Pre-Treat Value",[3]; Controls,(0.85)
same,Lymphocytes,[3]; Controls,2.08 ± 0.2 ×10^9/L
same,Lymphocytes % Normal Value,[3]; Controls,(99%)
same,"Lymphocytes, %",[3]; Controls,37.8 ± 2.9%
same,Monocytes,[3]; Controls,0.58 ± 0.07 ×10^9/L
same,"Monocytes, %",[3]; Controls,10.6 ± 1.2%
same,"Monocytes, % Normal Value",[3]; Controls,(88%)
same,Neutrophils,[3]; Controls,2.67 ± 0.3 ×10^9/L
same,"Neutrophils, %",[3]; Controls,47.5 ± 2.9%
same,"Neutrophils, % Normal Value",[3]; Controls,(75%)
same,Phagocytosis (yeast),[3]; Controls,75.0 ± 1.7
same,Salivary IgM,[3]; Controls,0.73 g/L
same,Salivary Lysozyme,[3]; Controls,63.5 ± 3.0%
same,Salivary Secretory IgA,[3]; Controls,0.066 ± 0.009 g/L
same,Serum Lysozyme,[3]; Controls,50.6 ± 1.4 %
same,Serum β-Lysin,[3]; Controls,46.8 ± 5.4%
same,T-Lymphocytes,[3]; Controls,1.56 ± 0.1 ×10^9/L
same,T-Lymphocytes % Normal Value,[3]; Controls,(108%)
same,T-Lymphocytes (%),[3]; Controls,73.9 ± 1.7%
same,T-helper (CD4+),[3]; Controls,1.36 ± 0.2 ×10^9/L
same,"T-helper (CD4+), %",[3]; Controls,65.6 ± 2.0 %
same,"T-helper (CD4+), % Normal Value",[3]; Controls,(136%)
same,T-suppressor (CD8+),[3]; Controls,0.08 ± 0.05 ×10^9/L
same,"T-suppressor (CD8+), %",[3]; Controls,4.8 ± 1.0%
same,"T-suppressor (CD8+), % Normal Value",[3]; Controls,(100%)
same,Total Salivary IgA,[3]; Controls,0.48 ± 0.1 g/L
same,Incidence of infection,"[3]; athletes treated, two month period",24.7%
same,Reduction of the rate of upper respiratory infections and illness,[3]; vs controls,4 fold
same,Clinical outcome,influenza,"normalization of fever, reduction in toxic symptoms"
same,Clinical outcome,Adult thymectomy,reduction of infectious disorders
same,Survivors at 24 hr. and 30 hr.,[4],statistically significant difference in the number of survivors
same,Outbreaks after treatment,Herpes vulgaris,less than one outbreak per year
same,Healing earlier than in the control group,Herpes Zoster,40%
